Experimental data published in ChEMBL document CHEMBL5584262, “Plakevulin A induces apoptosis and suppresses IL-6-induced STAT3 activation in HL60 cells” (Bioorg Med Chem Lett, 2024).
One block for each molecule: values may come before it. Active and inactive are the calls of the source. No cut-off for these calls is given here. *1 amine or outer side, *2 acyl side, *3 side chain or, on linkers, in order; H or OH if unused. Where a SMILES comes first, the peptide text is derived from it. Bridges are numbered along the chain shown (N, C = ends). Roman numbers before positions name the chains, in order. [ ]: non-standard residue; d: D form. Actinocin(9to1) = Cc1c2oc3c(C)ccc(C(=O)[*:1])c3nc-2c(C(=O)[*:2])c(N)c1=O; NMeV = CN[C@H](C(=O)O)C(C)C; Sar = CNCC(=O)O

Legend:
[1] = molecular target: T1, Peroxisomal multifunctional enzyme type 2 (Homo sapiens) (UniProt P51659); assay: Binding affinity to HSD17B4 in human HL-60 cell lysate by pull down assay; type: subcellular
T1 sequence (whole entry): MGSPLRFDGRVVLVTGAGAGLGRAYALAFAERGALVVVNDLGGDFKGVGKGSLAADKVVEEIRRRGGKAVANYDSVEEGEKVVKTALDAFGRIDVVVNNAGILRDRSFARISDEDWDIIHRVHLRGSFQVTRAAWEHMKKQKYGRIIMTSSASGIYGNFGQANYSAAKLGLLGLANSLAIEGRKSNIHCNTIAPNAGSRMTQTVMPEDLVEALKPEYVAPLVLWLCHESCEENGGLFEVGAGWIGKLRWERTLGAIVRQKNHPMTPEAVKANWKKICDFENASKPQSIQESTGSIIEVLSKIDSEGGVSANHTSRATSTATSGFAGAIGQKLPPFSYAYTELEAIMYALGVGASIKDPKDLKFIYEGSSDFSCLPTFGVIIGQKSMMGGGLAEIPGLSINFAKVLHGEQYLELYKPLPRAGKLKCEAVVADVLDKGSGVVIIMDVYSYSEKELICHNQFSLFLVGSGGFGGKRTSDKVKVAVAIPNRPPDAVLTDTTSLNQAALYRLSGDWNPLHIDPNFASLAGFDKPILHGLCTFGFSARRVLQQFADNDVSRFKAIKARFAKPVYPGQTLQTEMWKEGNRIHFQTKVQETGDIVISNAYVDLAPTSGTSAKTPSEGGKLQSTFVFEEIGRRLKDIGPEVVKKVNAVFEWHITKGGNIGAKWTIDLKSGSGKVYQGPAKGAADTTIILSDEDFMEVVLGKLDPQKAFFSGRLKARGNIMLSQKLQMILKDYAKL

HL-60 [2] = assay: Downregulation of IL-6-induced STAT3 phosphorylation in human HL-60 cells pretreated for 24 hrs followed by IL-6 stimulation by Western blot analysis; type: functional, cell-based
HL-60 [3] = assay: Cytotoxicity against human HL-60 cells assessed as inhibition of cell viability incubated for 48 hrs by WST-8 assay; type: functional, cell-based; conditions: HL-60, 48 h
[4] = molecular target: T1, Peroxisomal multifunctional enzyme type 2 (Homo sapiens); assay: Binding affinity to HSD17B4 in human HL-60 cell lysate by Western blot analysis; type: subcellular
HL-60 [5] = assay: Induction of apoptosis in Z-VAD-fmk-treated human HL-60 cells assessed as DNA fragmentation at 1 uM treated for 24 hrs by agarose gel electrophoresis; type: functional, cell-based
HL-60 [6] = assay: Induction of apoptosis in human HL-60 cells assessed as DNA fragmentation at 1 uM treated for 24 hrs by agarose gel electrophoresis; type: functional, cell-based
MRC5 = assay: Cytotoxicity against human MRC5 cells assessed as inhibition of cell viability incubated for 24 hrs by MTT assay; type: functional, cell-based; conditions: MRC5, 24 h
MC3T3-E1 = assay: Cytotoxicity against mouse MC3T3-E1 cells assessed as inhibition of cell viability incubated for 24 hrs by MTT assay; type: functional, cell-based; conditions: MC3T3-E1, 24 h
HL-60 [7] = assay: Induction of apoptosis in human HL-60 cells assessed as DNA fragmentation at 5 uM treated for 24 hrs by agarose gel electrophoresis; type: functional, cell-based
HL-60 [8] = assay: Induction of apoptosis in Z-VAD-fmk-treated human HL-60 cells assessed as DNA fragmentation at 5 uM treated for 24 hrs by agarose gel electrophoresis; type: functional, cell-based
HeLa = assay: Cytotoxicity against human HeLa cells assessed as inhibition of cell viability incubated for 24 hrs by MTT assay; type: functional, cell-based
[9] = Inhibition of calf DNA polymerase alpha using DNA as substrate incubated for 60 mins in presence of […]; set-up: species or system Bos taurus
HL-60 [10] = assay: Induction of apoptosis in Z-VAD-fmk-treated human HL-60 cells assessed as inhibition of caspase-3 activation at 5 uM treated for 24 hrs by Ac-DEVD-MCA substrate based analysis; type: functional, cell-based
DNA polymerase beta = DNA polymerase beta (Rattus norvegicus, UniProt P06766); assay: Inhibition of rat DNA polymerase beta using DNA as substrate incubated for 60 mins in presence of […]
HL-60 [11] = assay: Cytotoxicity against human HL-60 cells assessed as inhibition of cell viability incubated for 24 hrs by MTT assay; type: functional, cell-based; conditions: HL-60, 24 h

Structure (SMILES): CO/C=C(/C(=O)OC)c1ccccc1COc1cc(C(F)(F)F)nc(OC(C)C)n1
- Activity (HL-60 [2]): Dose-Dependent Effect

Structure (SMILES): Cc1c2oc3c(C)ccc(C(=O)N[C@@H]4C(=O)N[C@H](C(C)C)C(=O)N5CCC[C@H]5C(=O)N(C)CC(=O)N(C)[C@@H](C(C)C)C(=O)O[C@@H]4C)c3nc-2c(C(=O)N[C@@H]2C(=O)N[C@H](C(C)C)C(=O)N3CCC[C@H]3C(=O)N(C)CC(=O)N(C)[C@@H](C(C)C)C(=O)O[C@@H]2C)c(N)c1=O (I: T[dV]P[Sar][NMeV] / II: T[dV]P[Sar][NMeV]; ester I:1-I:C, II:1-II:C; linker I:N-II:N via Actinocin(9to1))
- Activity (HL-60 [5]): inactive
- Activity (HL-60 [6]): Active

More lines, main results first:

- Activity [1]: inactive
Structure (SMILES): O=C(O)CCCCCNC(=O)CCCC[C@@H]1SC[C@@H]2NC(=O)N[C@@H]21

- Activity [1]: Active
- Activity [4]: Active
Structure (SMILES): CCCCCCCCCCCCCCCC[C@]1(O)C=C[C@H](OC(=O)CCCCCNC(=O)CCCC[C@@H]2SC[C@@H]3NC(=O)N[C@@H]32)[C@H]1C(=O)OC
- IC50 (HL-60 [3]): 5.76 µM

- IC50 [9]: 137 µM
- IC50 (DNA polymerase beta): 189 µM
Structure (SMILES): CCCCCCCCCCCCCCCC[C@]1(O)C=C[C@H](O)[C@H]1C(=O)OC [PLAKEVULIN A]
- IC50 (HL-60 [3]): 2.63 µM
- IC50 (MRC5): > 15 µM
- IC50 (MC3T3-E1): 12.4 µM
- Activity (HL-60 [7]): Active
- Activity (HL-60 [8]): inactive
- IC50 (HeLa): 11.5 µM
- Activity (HL-60 [2]): Dose-Dependent Effect
- inhibition (HL-60 [10]): Active
- IC50 (HL-60 [11]): 2.02 µM
